Assay results reported in US7259146B2, “Neuroprotective peptides” (Ortho-McNeil Pharmaceutical, Inc., priority 2000, dated 2007).

Assays:
rat hippocampal cultures = assay: Neurite outgrowth assay (MAP2-FITC immunofluorescence), hippocampal cultures; assay type: cell-based; details: for overall neurite outgrowth response, hippocampal versus cortical cultures: comparison of hippocampal and cortical cultures; for dose-response profile: 10 fM-10 nM
Source text: (§1) Dissociated hippocampal and cortical cell cultures were established from embryonic day 18 rat fetuses as previously described (Mattson et al., 1994). Briefly, fetuses were removed via cesarean section from pregnant moms (Sprague-Dawley) anesthetized with halothane according to the AVMA Panel on Euthanasia. Pups were decapitated and the brains were removed and placed in HEPES-buffered Hank's Balanced Salt solution (HBSS; Gibco). The hippocampi and cortices were dissected out and pooled according to tissue-type. Tissue was trypsinized for 15 min (1 mg/ml trypsin-HBSS; Worthington), rinsed with fresh HBSS, incubated in trypsin inhibitor (1 mg/ml; Sigma) for 5 min, rinsed again with fresh HBSS and then triturated in 1 ml fresh HBSS with a fire-polished glass pipette. Dissociated cells were seeded at 30,000 cells/well onto poly-D-lysine coated 96-well plates (Collaborative BioScience). Each well contained 100 μl of Eagle's Minimal Essential Media (MEM; Gibco) supplemented with 26 mM NaHCO3 (Sigma), 56 mM glucose (Sigma), 15 mM KCl (Sigma), 1 mM sodium pyruvate (Sigma), 1.1 mM L-glutamine (Sigma), 10% (v/v) heat-inactivated fetal bovine serum (Hyclone), and 0.001% gentamicin sulfate (Sigma) (pH 7.4). Cells were allowed to attach for 24 h in a humidified 37° C. 5% CO2 incubator before experimental treatment. The culture media was aspirated and exchanged with fresh media every three days.
(§2) Twenty-four hours after plating, cultures were treated with vehicle (PBS+0.1% BSA), 100 ng of various growth factors (brain derived neurotrophic factor (BDNF; Promega), glial-derived neurotrophic factor (GDNF; Promega), nerve growth factor (NGF; Boehringer Mannheim), basic fibroblast growth factor (bFGF; Boehringer Mannheim), insulin-like growth factor-1 (IGF-1; Boehringer Mannheim), neurotrophin-3 (NT3; Calbiochem), neurotrophin-4 (NT4; Calbiochem), ciliary neurotrophic factor (CNTF; Calbiochem), epidermal growth factor (EGF; Calbiochem), vascular endothelial growth factor (VEGF; Calbiochem)), or rhEPO (prepared same as above; 10 fM-10 nM)). Each treatment condition was run in quadruplicate or octuplicate. On the third day in culture, the media was aspirated off and replaced with fresh media and test compound. At one week in culture, the cells were fixed with 10% phosphate-buffered formalin for 15 min, then rinsed with DPBS (Sigma) and placed in blocking serum for 30 min (horse serum; 1:50 dilution in DPBS; Vector Labs). Cultures were rinsed again with DPBS and then incubated in primary antibody for 2 hr (microtubule-associated protein-2 (MAP-2) is a selective marker for dendritic processes; anti-mouse monoclonal (Chemicon); 1:1000 dilution of MAP-2 in antibody diluent (Zymed)). Negative control wells were incubated in antibody diluent alone. Background signal was determined by blank wells (cell-free) incubated with or without antibody. Cultures were rinsed again with DPBS and then placed in fluorescein for 1 hr (FITC; anti-mouse IgG; rat adsorbed; 1:50 dilution in DPBS; Vector Labs). Cultures were rinsed a final time with DPBS and then the plates were read on a Cytofluor 4000 fluorescence plate reader. Neurite outgrowth was expressed as percent change from control (vehicle; mean fluorescence±SD).
(§3) Dissociated hippocampal and cortical cell cultures were established from embryonic day 18 rat fetuses as previously described (Mattson et al., 1994). Briefly, fetuses were removed via cesarean section from pregnant moms (Sprague-Dawley) anesthetized with halothane according to the AVMA Panel on Euthanasia. Pups were decapitated and the brains were removed and placed in HEPES-buffered Hank's Balanced Salt solution (HBSS; Gibco). The hippocampi and cortices were dissected out and pooled according to tissue-type. […]

[1] = test system: rat cerebral cortical cultures; assay: Neurite outgrowth assay (MAP2-FITC immunofluorescence), cortical cultures; assay type: cell-based; details: for dose-response profile: 10 fM-10 nM
Source text: as §1, §2, §3

Sequence | overall neurite outgrowth response, hippocampal versus cortical cultures (rat hippocampal cultures) | neurite outgrowth (in words) (rat hippocampal cultures; hippocampal cultures) | dose-response profile (rat hippocampal cultures; hippocampal cultures) | neurite outgrowth at peak activity, increase over vehicle (rat hippocampal cultures; hippocampal cultures, EMP 10 fM-10 nM, one week in culture) | neurite outgrowth (in words) [1] | dose-response profile [1]
YCHFGPLTWVC [EMP-23] | effects were greater in cortical cultures than hippocampal cells | promotes neurite outgrowth | modest response | 43–46% | promotes neurite outgrowth | typical bell-shaped dose-response profiles
GGTYSCHFAPLTWVCKPQGG [EMP-9] | less impressive overall | promotes neurite outgrowth | flat response profile | – | promotes neurite outgrowth | flat response overall
GGTYSCFGPLTWVCKPQGG [EMP-27] | less impressive overall | promotes neurite outgrowth | flat response profile | – | promotes neurite outgrowth | flat response overall
GGTYSCHFGPLTWVCKPQGG [EMP-1] | selective effects in hippocampal cultures over cortical cultures | promotes neurite outgrowth | typical bell-shaped dose-response profiles | – | promotes neurite outgrowth | flat response overall
GGTASCHFGPLTWVCKPQGG [EMP-6] | robust neurite outgrowth activity in both hippocampal and cortical cultures | promotes neurite outgrowth | typical bell-shaped dose-response profiles | – | promotes neurite outgrowth | typical bell-shaped dose-response profiles
